Reference: patent publication US8637521B2, “Substituted piperazin-2,5-diones and their use as multifunctional bioactive compounds” (priority 2006, dated 2014)
Where “and” joins values, the source holds several entries; their conditions need not be identical. Identical values can stand only once.

How the values were obtained:
[1] = system: CFU-S population in the bone marrow; experiment: Spleen colony formation (CFU-S) by bone marrow cells of peptide-treated intact donor mice; assay type: in vivo, (CBA×C57 B1) F1 mice; details: Table 2, donor treated i/p
Experimental: The effect of tested substances on intact bone marrow was studied in vivo. […] Two days after administration of preparation, the mice were killed. Bone marrow suspension was prepared and injected intravenously to lethally irradiated mice. The colony forming activity was evaluated at day 8. Test animals were (CBA×C57 B1) F1 mice (30 mice per trial, average from 3 tests).

antibodies to ovalbumin [2] = experiment: Adjuvant activity with ovalbumin immunization (Example 6); assay type: in vivo, mice (C57B16); details: for Stimulation index: Table 5, ovalbumin alone = 1.00
Experimental: Adjuvant activity was tested on 5 groups of mice (C57B16). Each group consisted of 5 animals. Three immunizations were performed:
• 1. Group with Complete Freund's Adjuvant (CFA) • 2. Group with ovalbumin (OVA egg) (25 micrograms/mouse) • 3. Group with CFA+ovalbumin (25 micrograms/mouse) • 4. Group with ovalbumin (25 micrograms/mouse)+peptide 1 microgram/mouse • 5. Group with ovalbumin (25 micrograms/mouse)+peptide 10 micrograms/mouse Second Immunization:
The same set 21 days after first immunization by injection of 12.5 micrograms of ovalbumin/mouse to groups 2-5.
The same set 35 days after first immunization by injection of 12.5 micrograms of ovalbumin/mouse to groups 2-5.
On day 42, the total blood from each mouse was collected. The blood was pooled from each group of mice. The stimulation index of each group was compared. The stimulation index was calculated as a ratio between optical density (OD=1) of diluted pools of groups 3-5 to the optical density (OD=1) of diluted pools of group 2 (control with no adjuvant).

[3] = system: hemopoietic precursor cells; experiment: Exogenous spleen colonies from bone marrow irradiated ex vivo with 1 Gy; assay type: in vivo
Experimental: In this study, the method of exogenous spleen colonies was applied. A suspension of intact bone marrow cells was irradiated ex vivo in the dose of 1 Gy. Different doses of Neogen or cyclic peptides were injected IP, 1M, subcutaneous or introduced per os to lethally irradiated recipients within an hour after the injection of irradiated bone marrow. Colonies were counted on day 8. All data in each group was the mean of three tests.

Anti-OVA antibody titers = experiment: Adjuvant activity, anti-OVA antibody titers by ELISA (Example 8); assay type: in vivo, Balb/c mice; details: for Pool: pooled sera titer
Experimental: Adjuvant activity was tested on 11 groups of Balb/c mice (obtained from Stolbovaya Breeding Station). Each group consisted of 7 animals. Three immunizations were performed as follows:
• Group 1—ovalbumin 25 micrograms per animal (Mouse Nos. 1 to 7) • Group 2—ovalbumin 25 micrograms per animal+CFA (Complete Freund's adjuvant) (Mouse Nos. 8 to 14) • Group 3—ovalbumin 25 micrograms per animal+adjuvant of compound 33a 100 micrograms per animal (Mouse Nos. 15 to 21) • Group 4—ovalbumin 25 micrograms per animal+adjuvant of compound 33a 10 micrograms per animal (Mouse Nos. […]) • Group 5—ovalbumin 25 micrograms per animal+adjuvant of compound 33a 1 microgram per animal (Mouse Nos. […]) • Group 6—ovalbumin 25 micrograms per animal+adjuvant of compound 33b 100 micrograms per animal (No. 36 to 42) • Group 7—ovalbumin 25 micrograms per animal+adjuvant of compound 33b 10 micrograms per animal (Mouse Nos. 43 to 49) • Group 8—ovalbumin 25 micrograms per animal+adjuvant of compound 33b 1 microgram per animal (Mouse Nos. 50 to 56) • Group 9—ovalbumin 25 micrograms per animal+adjuvant of compound 17 100 micrograms per animal (Mouse Nos. 57 to 63) • Group 10—ovalbumin 25 micrograms per animal+adjuvant of compound 1710 micrograms per animal (Mouse Nos. 64 to 70) • Group 11—ovalbumin 25 micrograms per animal+adjuvant of compound 171 microgram per animal (Mouse Nos. 71 to 77) Second Immunization:
The same set 14 days after first immunization by injection of 12.5 micrograms of ovalbumin/mouse to mouse nos. 1 to 77.
The same set 28 days after first immunization by injection of 12.5 micrograms of ovalbumin/mouse to mouse nos. 1 to 77.
On day 35 after first immunization, blood samples from each mouse were collected.
OVA (10 micrograms/ml) solution in 0.05 M sodium carbonate buffer (pH 9.5) was added to plate wells, 0.1 ml per well and incubated at 4° C. for 16 hours. The OVA solution was then removed and the plate was washed 4 times with PBS containing 0.05% Tween-20. Such washing was performed after each incubation stage. Serial twofold dilutions of sera (starting from 1:100 or 1:1000) were added to the wells, 0.1 ml per well and incubated at 37° C. for 1 hour followed by incubation (1 hour, 37° C.) with HRP-conjugated goat anti-mouse IgG antibodies (0.1 ml, 1 mg/ml in PBS) and then with a 0.1 mL substrate solution −0.05% H2O2 and 0.05% o-phenylene diamine in 0.05M sodium citrate buffer with a pH of 4.5. The reaction was stopped by adding 100 μl of 12.5% H2SO4. Absorbance was measured at a wavelength of 492 nm using a Multiscan Plus MKII (Flow Laboratories, Great Britain). Significant anti-protein antibody titer (for individual sera) was assessed as the serum dilution produced an absorbance value of more than 0.1 ODU and the minimum exceeds three times the control level. The antibody titer was presented and −log of dilution (FIGS. 2 and 3). The stimulation index for pooled sera was calculated by dividing the test pooled sera dilution producing OD=1 by the dilution of pooled sera from mice immunized without the adjuvant, producing OD=1. The results of the adjuvant activities of cyclo-L-Ala-L-Glu-(L-Trp-OH) (Compound 17), cyclo-L-Lys(N-acetyl-Glycosamine-N-acetyl-muramil)-L-Glu-(L-Trp-OH) (Compound 33a) and cyclo-D-Lys(N-acetyl-Glycosamine-N-acetyl-muramil)-D-Glu-(L-Trp-OH) (Compound 33b) are shown in Table 7 and the adjuvant activities of cyclo [L-Lys(Palmitoyil)-L-Glu(D-Trp-OH)] (Compound 26a) and cyclo [D-Lys(Palmitoyil)-D-Glu(D-Trp-OH)] (Compound 26b) are shown in Table 8 as well as in FIG. 4 which includes the results of the adjuvant activities of cyclo-L-Lys-L-Glu-(L-Trp-OH) (compound 19). It is noted that the peptides of compounds 26a and 26b are soluble in 0.1% NH4OH at a concentration of 1 mg per 1 to 2 ml.

antibodies to ovalbumin [4] = experiment: Adjuvant activity with ovalbumin immunization (Example 7); assay type: in vivo, mice; details: Table 6
Experimental: Adjuvant activity was tested on 6 groups of mice. Each group consisted of 5 animals. Three immunizations were performed as follows:
• 1. Mouse Nos. 1 to 5—Complete Freund's adjuvant (CFA=control) • 2. Mouse Nos. 6 to 10—ovalbumin (OVA egg) 25 micrograms per animal+adjuvant 100 micrograms per animal • 3. Mouse Nos. 11 to 15—ovalbumin 25 micrograms per animal+CFA • 4. Mouse Nos. 16 to 20—ovalbumin 25 micrograms per animal • 5. Mouse Nos. 21 to 25—ovalbumin 25 micrograms per animal+adjuvant 1 microgram per animal • 6. Mouse Nos. 26 to 30—ovalbumin 25 micrograms per animal+adjuvant 10 micrograms per animal Second Immunization:
The same set 21 days after first immunization by injection of 12.5 micrograms of ovalbumin/mouse to mouse nos. 6 to 30.
The same set 35 days after first immunization by injection of 12.5 microgram of ovalbumin/mouse to mouse nos. 6 to 30.
On day 42, blood samples from each mouse were collected. The stimulation index of each group was compared. The stimulation index was calculated by dividing the test pooled sera dilution yielding OD=1 by the dilution of pooled sera from mice immunized without the adjuvant, yielding OD=1.

[5] = Solubility of peptides in 0.1% NH4OH; assay type: physicochemical; details: for solubility when titrated with 0.1% AcOH: titrated with 0.1% AcOH to pH=8.4 to 8.5
[6] = Table 8, 100 μg per animal, no adjuvant = 1
[7] = Table 8, OVA + adjuvant 1 μg per animal, one value per mouse
[8] = Table 8, OVA + adjuvant 10 μg per animal, one value per mouse
[9] = Table 8, OVA + adjuvant 100 μg per animal, one value per mouse
[10] = Table 8, 100 μg per animal, no adjuvant 3.9

## C[C@@H]1NC(=O)[C@H](CCC(=O)N[C@@H](Cc2c[nH]c3ccccc23)C(=O)[O-])NC1=O.[Na+] [cyclo-LAla-LGlu-(LTrp-ONa), cyclo-L-Ala-L-Glu-(L-Trp-ONa)]
[1]
  % suppression: 0%
[1]; control 11.2 ± 0.4, colonies day 8
  Colony count CFU-8 - S per 10^5 cells M ± M: 11.7 ± 0.8 per 10^5 cells
Antibodies to ovalbumin [2]; ovalbumin + peptide 1 μg/mouse (group 4)
  Stimulation index: 1.18
Antibodies to ovalbumin [2]; ovalbumin + peptide 10 μg/mouse (group 5)
  Stimulation index: 1.74
Antibodies to ovalbumin [2]; matches stimulation index 1.74 at 10 μg/mouse
  increase of titers of antibodies to ovalbumin: 74%
[3]; 10 μg/kg IP, unirradiated 11.9 ± 0.4, 1 Gy alone 6.2 ± 0.6
  Colony count: 8.0 ± 0.4
[3]; 10 μg/kg IP, unirradiated = 100, 1 Gy alone = 0
  % stimulation: 67.2%
[3]; 100 μg/kg IP
  % stimulation: 80.7%
  Colony count: 9.6 ± 0.7
[3]; 100 μg/kg per/os
  % stimulation: 98.3%
  Colony count: 11.7 ± 0.6

## C[C@@H]1NC(=O)[C@H](CCC(=O)N[C@@H](Cc2c[nH]c3ccccc23)C(=O)O)NC1=O [Compound 17, cyclo-L-Ala-L-Glu-(L-Trp-OH)]
Anti-OVA antibody titers
  adjuvant activity (FIG. 4), doses at which active: active at 1, 10 and 100 μg/kg
Anti-OVA antibody titers; Table 7, 1 μg per animal
  Anti-protein antibody titer (pooled sera): 4.8
  Stimulation index: 2.6
Anti-OVA antibody titers; Table 7, 10 μg per animal
  Anti-protein antibody titer (pooled sera): 4.5
  Stimulation index: 1.9
Anti-OVA antibody titers; Table 7, 100 μg per animal, no adjuvant 4.5
  Anti-protein antibody titer (pooled sera): 4.8
Anti-OVA antibody titers; Table 7, 100 μg per animal, no adjuvant = 1
  Stimulation index: 2.3
Anti-OVA antibody titers; Table 7, OVA + adjuvant 1 μg per animal, −log of dilution
  Anti-protein antibody titer (for individual sera): 5.1 (3×) and 4.2 and 4.5 (2×) and 5.4
Anti-OVA antibody titers; Table 7, OVA + adjuvant 10 μg per animal, −log of dilution
  Anti-protein antibody titer (for individual sera): 4.8 and 4.2 and 4.1 and 4.5 (2×) and 5.4 and 3.9
Anti-OVA antibody titers; Table 7, OVA + adjuvant 100 μg per animal, titer as −log of dilution, one value per mouse
  Anti-protein antibody titer (for individual sera): 4.5 and 4.2 (3×) and 5.1 (2×) and 4.8
Antibodies to ovalbumin [4]; adjuvant 1 microgram per animal
  Stimulation index: 1.18
Antibodies to ovalbumin [4]; adjuvant 10 micrograms per animal
  Stimulation index: 1.74
Antibodies to ovalbumin [4]; adjuvant 100 micrograms per animal, ovalbumin alone = 1.0
  Stimulation index: 1.14

## CCCCCCCCCCCCCCCC(=O)NCCCC[C@@H]1NC(=O)[C@H](CCC(=O)N[C@H](Cc2c[nH]c3ccccc23)C(=O)O)NC1=O [Compound 26a, cyclo [L-Lys(Palmitoyil)-L-Glu(D-Trp-OH)]]
[5]
  soluble in 0.1% NH4OH at a concentration of: 1 mg per 1 to 2 ml
  solubility when titrated with 0.1% AcOH: remain soluble
Anti-OVA antibody titers
  adjuvant activity (FIG. 4), doses at which active: active at 10 μg/kg
Anti-OVA antibody titers; Table 8, 1 μg per animal
  Stimulation index: 2.0
  Pool: 4.4
Anti-OVA antibody titers; Table 8, 10 μg per animal
  Stimulation index: 6.5
  Pool: 5.7
Anti-OVA antibody titers; [6]
  Stimulation index: 3.3
Anti-OVA antibody titers; [7]
  Anti-protein antibody titer: 4.8 and 5.1 (4×) and 4.5 and 4.4
Anti-OVA antibody titers; [8]
  Anti-protein antibody titer: 5.5 (4×) and 5.8 and 5.7 (2×)
Anti-OVA antibody titers; [9]
  Anti-protein antibody titer: 4.8 (4×) and 4.4 and 5.1 and 5.4
Anti-OVA antibody titers; [10]
  Pool: 5.1

## CCCCCCCCCCCCCCCC(=O)NCCCC[C@H]1NC(=O)[C@@H](CCC(=O)N[C@H](Cc2c[nH]c3ccccc23)C(=O)O)NC1=O [Compound 26b, cyclo [D-Lys(Palmitoyil)-D-Glu(D-Trp-OH)]]
[5]
  soluble in 0.1% NH4OH at a concentration of: 1 mg per 1 to 2 ml
  solubility when titrated with 0.1% AcOH: remain soluble
Anti-OVA antibody titers
  adjuvant activity (FIG. 4), doses at which active: not an active compound
Anti-OVA antibody titers; Table 8, 1 μg per animal
  Stimulation index: 4.9
  Pool: 5.1
Anti-OVA antibody titers; Table 8, 10 μg per animal
  Stimulation index: 2.7
  Pool: 4.8
Anti-OVA antibody titers; [6]
  Stimulation index: 2.6
Anti-OVA antibody titers; [7]
  Anti-protein antibody titer: 5.4 (2×) and 4.5 and 3.8 and 3.5 and 5.1
Anti-OVA antibody titers; [8]
  Anti-protein antibody titer: 4.7 (3×) and 5.1 and 4.8 (2×)
Anti-OVA antibody titers; [9]
  Anti-protein antibody titer: 4.5 (2×) and 4.8 (3×) and 4.2
Anti-OVA antibody titers; [10]
  Pool: 4.8
